Tested on: VA-ES-BJ tumor spheroid viability
Assay: Anticancer human tumor VA-ES-BJ cell line growth inhibition;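 note: spheroids exposed to compounds for seven days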;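 for viability, T/C: percent of DMSO vehicle control viability so 100% = untreated growth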
Conditions: spheroids with HUVEC and MSC; for viability, T/C: stronger effect = lower value
How it was run: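 Complex spheroids of malignant cells with endothelial cells and mesenchymal stem cells; agents alone or combined, from near clinical Cmax (or 10 microM if unknown) down in half-log steps, 0.25% DMSO final.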

`Cn1ncnc1[C@H]1c2n[nH]c(=O)c3cc(F)cc(c23)N[C@@H]1c1ccc(F)cc1` + CC[C@@]1(O)C(=O)OCc2c1cc1n(c2=O)Cc2cc3c(CN(C)C)c(O)ccc3nc2-1 was tested, and the IC50 (curve of first compound, second compound 0.003 µM) was 150 nM, the IC50 (curve of first compound, second compound 0.00949 µM) was < 9.49 nM and the IC50 (curve of first compound, second compound 0.03 µM) was < 9.49 nM. The IC50 (curve of first compound, second compound 0.0949 µM) was < 9.49 nM, the IC50 (curve of first compound, second compound 0.3 µM) was < 9.49 nM and the viability, T/C (second compound 0.003 µM, first compound 0.00949 µM) was 70.4%. The viability, T/C (second compound 0.003 µM, first compound 0.03 µM) was 54.7%, the viability, T/C (second compound 0.003 µM, first compound 0.0949 µM) was 57.9% and the viability, T/C (second compound 0.003 µM, first compound 0.3 µM) was 44.7%. For the same compound, the viability, T/C (second compound 0.003 µM, first compound 0.949 µM) was 22.9%, the viability, T/C (second compound 0.003 µM, first compound 3 µM) was 5.42% and the viability, T/C (second compound 0.00949 µM, first compound 0.00949 µM) was 43.9%. It also gave a viability, T/C (second compound 0.00949 µM, first compound 0.03 µM) of 33.5%, a viability, T/C (second compound 0.00949 µM, first compound 0.0949 µM) of 28.4% and a viability, T/C (second compound 0.00949 µM, first compound 0.3 µM) of 21%. It also gave a viability, T/C (second compound 0.00949 µM, first compound 0.949 µM) of 10.6%, a viability, T/C (second compound 0.00949 µM, first compound 3 µM) of 6.84% and a viability, T/C (second compound 0.03 µM, first compound 0.00949 µM) of 9.86%. The viability, T/C (second compound 0.03 µM, first compound 0.03 µM) was 8.29%, the viability, T/C (second compound 0.03 µM, first compound 0.0949 µM) was 7.12% and the viability, T/C (second compound 0.03 µM, first compound 0.3 µM) was 6.39%. The viability, T/C (second compound 0.03 µM, first compound 0.949 µM) was 4.2%, the viability, T/C (second compound 0.03 µM, first compound 3 µM) was 3.72% and the viability, T/C (second compound 0.0949 µM, first compound 0.00949 µM) was 7.58%. For the same compound, the viability, T/C (second compound 0.0949 µM, first compound 0.03 µM) was 7.39%, the viability, T/C (second compound 0.0949 µM, first compound 0.0949 µM) was 8.32% and the viability, T/C (second compound 0.0949 µM, first compound 0.3 µM) was 8.9%. It also gave a viability, T/C (second compound 0.0949 µM, first compound 0.949 µM) of 4.82%, a viability, T/C (second compound 0.0949 µM, first compound 3 µM) of 3.16% and a viability, T/C (second compound 0.3 µM, first compound 0.00949 µM) of 9.11%. It also gave a viability, T/C (second compound 0.3 µM, first compound 0.03 µM) of 9.07%, a viability, T/C (second compound 0.3 µM, first compound 0.0949 µM) of 8.75% and a viability, T/C (second compound 0.3 µM, first compound 0.3 µM) of 9.02%. It also gave a viability, T/C (second compound 0.3 µM, first compound 0.949 µM) of 8.91% and a viability, T/C (second compound 0.3 µM, first compound 3 µM) of 7.66%.

Compound `Cc1sc2c(c1C)C(c1ccc(Cl)cc1)=NC(CC(=O)Nc1ccc(O)cc1)c1nnc(C)n1-2` (stereo not given) + Cn1nnc2c(C(N)=O)ncn2c1=O has an IC50 (curve of first compound, second compound 1 µM) of 103 nM, an IC50 (curve of first compound, second compound 3.16 µM) of 93.7 nM and an IC50 (curve of first compound, second compound 10 µM) of 83.1 nM. It also gave an IC50 (curve of first compound, second compound 31.6 µM) of 80.6 nM, an IC50 (curve of first compound, second compound 100 µM) of 68.6 nM and a viability, T/C (second compound 1 µM, first compound 0.00949 µM) of 83.5%. For the same compound, the viability, T/C (second compound 1 µM, first compound 0.03 µM) was 69%, the viability, T/C (second compound 1 µM, first compound 0.0949 µM) was 51.6% and the viability, T/C (second compound 1 µM, first compound 0.3 µM) was 33.5%. It also gave a viability, T/C (second compound 1 µM, first compound 0.949 µM) of 25.9%, a viability, T/C (second compound 1 µM, first compound 3 µM) of 17.1% and a viability, T/C (second compound 3.16 µM, first compound 0.00949 µM) of 81.3%. The viability, T/C (second compound 3.16 µM, first compound 0.03 µM) was 68.3%, the viability, T/C (second compound 3.16 µM, first compound 0.0949 µM) was 50.7% and the viability, T/C (second compound 3.16 µM, first compound 0.3 µM) was 31.1%. The viability, T/C (second compound 3.16 µM, first compound 0.949 µM) was 19.9%, the viability, T/C (second compound 3.16 µM, first compound 3 µM) was 17.7% and the viability, T/C (second compound 10 µM, first compound 0.00949 µM) was 81.2%. For the same compound, the viability, T/C (second compound 10 µM, first compound 0.03 µM) was 65.2%, the viability, T/C (second compound 10 µM, first compound 0.0949 µM) was 49.1% and the viability, T/C (second compound 10 µM, first compound 0.3 µM) was 30.8%. It also gave a viability, T/C (second compound 10 µM, first compound 0.949 µM) of 24.8%, a viability, T/C (second compound 10 µM, first compound 3 µM) of 15.8% and a viability, T/C (second compound 31.6 µM, first compound 0.00949 µM) of 81.1%. For the same compound, the viability, T/C (second compound 31.6 µM, first compound 0.03 µM) was 61.1%, the viability, T/C (second compound 31.6 µM, first compound 0.0949 µM) was 51.2% and the viability, T/C (second compound 31.6 µM, first compound 0.3 µM) was 31.9%. The viability, T/C (second compound 31.6 µM, first compound 0.949 µM) was 21.3%, the viability, T/C (second compound 31.6 µM, first compound 3 µM) was 12.4% and the viability, T/C (second compound 100 µM, first compound 0.00949 µM) was 91.2%. For the same compound, the viability, T/C (second compound 100 µM, first compound 0.03 µM) was 60.1%, the viability, T/C (second compound 100 µM, first compound 0.0949 µM) was 47.5% and the viability, T/C (second compound 100 µM, first compound 0.3 µM) was 29.5%. For the same compound, the viability, T/C (second compound 100 µM, first compound 0.949 µM) was 14.4% and the viability, T/C (second compound 100 µM, first compound 3 µM) was 7.67%.

`Cn1nnc2c(C(N)=O)ncn2c1=O` was tested, and the viability, T/C (compound 1 µM) was 104% [middle of 10 runs], the viability, T/C (compound 3.16 µM) was 103% [middle of 10 runs] and the viability, T/C (compound 10 µM) was 107% [middle of 10 runs]. For the same compound, the viability, T/C (compound 100 µM) was 104% [middle of 10 runs] and the IC50 (compound alone, run of 12/02/2019) was > 100000 nM.

Reference: PubChem BioAssay AID1845217 (Molecular Pharmacology Branch, DTP, NCI, 2023)
